The values below are quoted from earlier work in paper PMC3759941 (International Journal of Molecular Sciences, 2013).

One may read the IC50 as the concentration that inhibits the measured activity by half.

The test system of this data set is EeAChE.

Each structure is given as a SMILES string. Like-named read-outs stand apart in the source and are kept apart here.

In the case of `C[n+]1ccccc1/C=N/O` [Compound 1, 2-pyridine aldoxime methiodide], the IC50 (Table 1, mono-pyridinium reactivators) was 54.9 mM. Turning to `ON=Cc1cc[n+](CCC[n+]2ccc(/C=N/O)cc2)cc1` [Compound 6, trimedoxime], the IC50 was 51.9 mM (Table 2, bis-pyridinium reactivators) and 51.9 mM (Table 3). On to `ON=Cc1cc[n+](C/C=C/C[n+]2ccc(C=NO)cc2)cc1` [Compound 23], for which the IC50 (Table 3) is 36.7 mM.
